Source: patent US20240417734A1, “Methods for Treating Glioblastoma by Targeting Oncomirs” (University of Connecticut, priority 2021, published 2024)

Experiments:
U87 cells = assay: Cell viability assay, U87; format: cell-based, human; settings: BNP 0.5 mg/mL, TMZ 20 μM
Protocol: Cells were seeded in 96-well plates at a density of 5,000 cells/well and treated with increasing concentrations of NP formulations. Cell viability was evaluated by CellTiter-Glo Luminescent Cell Viability Assay (Promega) after 48 h, 72 h treatment. Luminescence was measured using a plate reader (SpectraMax M5) and relative cell viability was normalized to the viability of untreated cells. For TMZ involved combination studies, cells were seeded in 96-well plates at a density of 1,000 cells/well and exposed to sγPNA/NNP and sγPNA/BNP. After 72 h of treatments, NPs were removed and TMZ was added to the wells. Cell viability was measured as described above after 6 days of treatment.

intracranial U87 tumors = assay: Survival study, intracranial U87 tumors; format: in vivo, mice; settings: NPs by CED 6 days post inoculation, TMZ 25 mg/kg i.p.
Protocol: (§1) Animals were anaesthetized using a mixture of ketamine (100 mg/kg) and xylazine (10 mg/kg) via intraperitoneal injection. Anesthetized animals were then placed in a stereotaxic frame and sterilized the scalp with betadine and alcohol. To expose the coronal and sagittal sutures, a midline scalp incision was created, and a burr hole was drilled 2 mm lateral to the sagittal suture and 0.5 mm anterior to the bregma. U87 or G22 cells ([…]) in 3 μL PBS were injected into the right stratum over 3 min using a 10-μL Hamilton syringe. The animal was left 5 min for tissue equilibration before and after infusion. When infusion was finished, the burr hole was filled with bone wax and skin was stapled and cleaned.
(§2) CED in tumor bearing mice was similar to tumor inoculation by reopening the burr hole used for tumor inoculation. A micro-infusion pump (World Precision Instruments) was used to infuse 6 μL of NPs at a rate of […].
(§3) Tumors grew for 6 days before the administration of treatment. Intracranial CED of sγPNA/BNP was conducted following the same surgical procedure as described. TMZ (25 mg/kg) in PBS was administered intraperitoneally on day 7. Animals were monitored daily and weighed every week. […] Total RNA in the tumor and contralateral hemisphere was isolated using mirVana miRNA Isolation Kit and analyzed by real-time PCR detection system as previously described.

[1] = test system: patient (G22) derived intracranial gliomas; assay: Survival study, patient-derived G22 orthotopic tumors; format: in vivo, mice; settings: G22 orthotopic model; single dose TMZ 25 mg/kg
Protocol: as §1, §2, §3

## Cn1nnc2c(C(N)=O)ncn2c1=O [TMZ, Temozolomide]
U87 cells
  Cell viability/100: 0.66
U87 cells; Homo sapiens, U-87 MG, read-out: Cell viability (% of control)
  viability at 20 µM: 66%
Intracranial U87 tumors
  Median survival: 81 days
[1]
  Median survival: 79 days
